Test results from DBAASP.
In brackets after ≈: the same amount, converted by molar mass. Several values for one entry are separate records, joined by “and”; a condition that tells them apart may be missing. Equal values may be shown once.

How the values were obtained:
Experiment in all cases: ≥ marks a high value that may be exact or a test limit, other limits are often not marked, values filed in µg/mL are converted to µM
[1] = test system: Bacillus subtilis CMCC 63501
[2] = test system: Escherichia coli ATCC 25922
Escherichia coli UB1005 = test system: Escherichia coli UB1005
[3] = test system: Pseudomonas aeruginosa ATCC 27853
[4] = test system: Salmonella enterica subsp. enterica serovar Pullorum C79-13
[5] = test system: Salmonella typhimurium ATCC 7731
[6] = test system: Staphylococcus aureus ATCC 29213
[7] = test system: Staphylococcus aureus ATCC 43300
[8] = test system: Staphylococcus epidermidis ATCC 12228
[9] = test system: Candida albicans NCPF 1467
[10] = test system: Escherichia coli NCTC 10418
[11] = test system: Staphylococcus aureus NCTC 10788
[12] = test system: Staphylococcus aureus USA 100
[13] = test system: Clavibacter michiganensis subsp. michiganensis DSM 46294
[14] = test system: Pectobacterium carotovorum subsp. carotovorum DSM 30168
[15] = test system: Pseudomonas corrugata DSM 7228
[16] = test system: Pseudomonas syringae pv. syringae DSM 10604
[17] = test system: Pseudomonas syringae pv. tomato DC3000
[18] = test system: Xanthomonas vesicatoria DSM 50861
Bacillus subtilis = test system: Bacillus subtilis
Escherichia coli = test system: Escherichia coli
Klebsiella pneumoniae = test system: Klebsiella pneumoniae
Micrococcus luteus = test system: Micrococcus luteus
Proteus mirabilis = test system: Proteus mirabilis
Pseudomonas aeruginosa = test system: Pseudomonas aeruginosa
Salmonella typhimurium = test system: Salmonella typhimurium
Shigella dysenteriae = test system: Shigella dysenteriae
Staphylococcus aureus = test system: Staphylococcus aureus
[19] = test system: Staphylococcus epidermidis
[20] = test system: Salmonella enterica subsp. enterica serovar Typhimurium ATCC 14028

## CC(C)C[C@H](NC(=O)[C@H](CCCCN)NC(=O)[C@H](CCCCN)NC(=O)[C@H](C)NC(=O)[C@@H](NC(=O)[C@H](CCCCN)NC(=O)[C@H](CO)NC(=O)[C@H](CC(C)C)NC(=O)[C@@H](N)Cc1c[nH]c2ccccc12)[C@@H](C)O)C(N)=O [WLSKTAKKL]
[1]
  MIC: ≥ 128 µM
[2]
  MIC: > 128 µM
Escherichia coli UB1005
  MIC: ≥ 128 µM
[3]
  MIC: > 128 µM
[4]
  MIC: ≥ 128 µM
[5]
  MIC: ≥ 128 µM
[6]
  MIC: > 128 µM
[7]
  MIC: > 128 µM
[8]
  MIC: > 128 µM

## CC[C@H](C)[C@H](NC(=O)CN)C(=O)NCC(=O)NCC(=O)N[C@@H](C)C(=O)N[C@@H](CC(C)C)C(=O)N[C@@H](CC(C)C)C(=O)N[C@@H](CC(N)=O)C(=O)N[C@H](C(=O)NCC(=O)N[C@@H](CCCCN)C(=O)N[C@H](C(=O)N[C@@H](C)C(=O)N[C@@H](CC(C)C)C(=O)N[C@@H](CCCCN)C(=O)NCC(=O)N[C@@H](CC(C)C)C(=O)N[C@@H](C)C(=O)N[C@@H](CCCCN)C(=O)NCC(=O)N[C@@H](CC(C)C)C(=O)N[C@@H](C)C(=O)N[C@@H](CCC(=O)O)C(=O)N[C@@H](Cc1cnc[nH]1)C(=O)N[C@@H](Cc1ccccc1)C(=O)N[C@@H](C)C(=O)N[C@@H](CC(N)=O)C(N)=O)C(C)C)C(C)C [GIGGALLNVGKVALKGLAKGLAEHFAN]
[9]
  MIC: 12.2 µM (≈ 32 µg/mL)
[10]
  MIC: 12.2 µM (≈ 32 µg/mL)
[11]
  MIC: 3.05 µM (≈ 8 µg/mL)

## NC(=O)[C@H](CCCN=C(N)N)NC(=O)[C@H](CC(=O)O)NC(=O)[C@H](CCCN=C(N)N)NC(=O)[C@@H](N)CC(=O)O [DRDR]
[12]
  MIC: ≥ 100 µM

## CC[C@H](C)[C@H](NC(=O)[C@H](CO)NC(=O)[C@H](CC(N)=O)NC(=O)[C@@H](NC(=O)[C@H](CC(C)C)NC(=O)[C@H](C)NC(=O)[C@H](CO)NC(=O)[C@H](C)NC(=O)[C@H](Cc1ccccc1)NC(=O)[C@H](CC(=O)O)NC(=O)[C@H](CCCCN)NC(=O)[C@H](C)NC(=O)CNC(=O)[C@H](CCCCN)NC(=O)[C@H](CCCCN)NC(=O)[C@H](CC(C)C)NC(=O)[C@H](CCCCN)NC(=O)[C@H](CCC(=O)O)NC(=O)[C@H](CC(C)C)NC(=O)[C@H](Cc1ccccc1)NC(=O)CN)C(C)C)C(=O)N[C@@H](CCCCN)C(=O)NCC(=O)N[C@H](C(=O)O)[C@@H](C)O [GFLEKLKKGAKDFASALVNSIKGT]
[9]
  MIC: ≥ 101 µM
[10]
  MIC: ≥ 50.7 µM
[11]
  MIC: ≥ 203 µM

## CC[C@H](C)[C@H](NC(=O)[C@H](CC(C)C)NC(=O)[C@H](CCCN=C(N)N)NC(=O)[C@H](CCCCN)NC(=O)[C@H](CC(C)C)NC(=O)[C@H](CC(C)C)NC(=O)[C@H](CCCCN)NC(=O)[C@H](CCCCN)NC(=O)[C@H](CCCN=C(N)N)NC(=O)[C@H](CCCCN)NC(=O)[C@H](CCCCN)NC(=O)[C@@H](N)CCCN=C(N)N)C(N)=O [RKKRKKLLKRLI]
[13]
  MIC: 3.16 µM (≈ 5 µg/mL)
[14]
  MIC: 6.33 µM (≈ 9.99 µg/mL)
[15]
  MIC: 0.316 µM (≈ 0.5 µg/mL)
[16]
  MIC: 0.158 µM (≈ 0.25 µg/mL)
[17]
  MIC: 6.33 µM (≈ 9.99 µg/mL)
[18]
  MIC: 6.33 µM (≈ 9.99 µg/mL)

## CC(C)C[C@H](NC(=O)[C@@H](NC(=O)[C@H](CCCCN)NC(=O)[C@H](CC(C)C)NC(=O)[C@H](C)NC(=O)[C@@H](NC(=O)[C@H](CCCCN)NC(=O)[C@H](Cc1ccccc1)NC(=O)[C@H](CC(C)C)NC(=O)[C@H](C)NC(=O)[C@H](CCCCN)NC(=O)[C@H](CC(C)C)NC(=O)[C@@H](N)Cc1ccccc1)C(C)C)C(C)C)C(=O)O [FLKALFKVALKVL]
Bacillus subtilis
  MIC: 16.8 µM (≈ 25 µg/mL)
Escherichia coli
  MIC: 33.6 µM (≈ 50 µg/mL)
Klebsiella pneumoniae
  MIC: 67.1 µM (≈ 100 µg/mL)
Micrococcus luteus
  MIC: 4.23 µM (≈ 6.3 µg/mL)
Proteus mirabilis
  MIC: ≥ 134 µM
Pseudomonas aeruginosa
  MIC: > 134 µM
Salmonella typhimurium
  MIC: ≥ 134 µM
Shigella dysenteriae
  MIC: ≥ 33.6 µM
Staphylococcus aureus
  MIC: 2.08 µM (≈ 3.1 µg/mL)
[19]
  MIC: 2.08 µM (≈ 3.1 µg/mL)

## CC[C@H](C)[C@H](NC(=O)[C@H](C)NC(=O)[C@H](CCCCN)NC(=O)[C@@H]1CCCN1C(=O)[C@@H](NC(=O)[C@H](CC(C)C)NC(=O)[C@H](CCCCN)NC(=O)[C@H](Cc1ccccc1)NC(=O)[C@H](CC(C)C)NC(=O)[C@@H](N)Cc1ccccc1)[C@@H](C)CC)C(=O)N[C@@H](CCCCN)C(=O)NCC(=O)N[C@@H](CC(C)C)C(=O)N[C@H](C(=O)N[C@@H](CCCCN)C(=O)N[C@@H](C)C(=O)N[C@@H](Cc1ccccc1)C(=O)N[C@H](C=O)CCCCN)[C@@H](C)CC [FLFKLIPKAIKGLIKAFK]
[9]
  MIC: 4 µM (≈ 8.24 µg/mL)
[10]
  MIC: 8 µM (≈ 16.5 µg/mL)
[11]
  MIC: 4 µM (≈ 8.24 µg/mL)

## CC[C@H](C)[C@H](NC(=O)CNC(=O)[C@H](C)NC(=O)[C@H](C)NC(=O)[C@@H](NC(=O)[C@@H](NC(=O)[C@H](CC(N)=O)NC(=O)[C@@H](NC(=O)[C@H](C)NC(=O)[C@@H](NC(=O)[C@@H]1CCCN1C(=O)[C@@H](NC(=O)[C@H](CC(C)C)NC(=O)[C@@H]1CCCN1C(=O)[C@H](Cc1c[nH]c2ccccc12)NC(=O)[C@H](Cc1ccccc1)NC(=O)[C@H](CCCN=C(N)N)NC(=O)[C@@H](N)CCCCN)C(C)C)C(C)C)[C@@H](C)CC)[C@@H](C)O)C(C)C)C(=O)N[C@@H](CC(N)=O)C(=O)N[C@@H](CC(C)C)C(=O)N[C@@H](Cc1ccc(O)cc1)C(=O)N[C@@H](CCCCN)C(=O)N[C@@H](C)C(=O)N[C@H](C(=O)N[C@@H](CCCN=C(N)N)C(=O)N[C@@H](CCCN=C(N)N)C(=O)N[C@@H](CCCCN)C(N)=O)[C@@H](C)CC [KRFWPLVPVAINTVAAGINLYKAIRRK]
[1]
  MIC: 2 µM (≈ 6.19 µg/mL)
[2]
  MIC: 2 µM and 4 µM
Escherichia coli UB1005
  MIC: 4 µM (≈ 12.4 µg/mL)
[3]
  MIC: 4 µM and > 2 µM
[20]
  MIC: 4 µM (≈ 12.4 µg/mL)
[5]
  MIC: 4 µM (≈ 12.4 µg/mL)
[6]
  MIC: 4 µM (≈ 12.4 µg/mL)
[8]
  MIC: 2 µM (≈ 6.19 µg/mL)

## NC(=O)[C@H](CCCN=C(N)N)NC(=O)[C@H](Cc1ccccc1)NC(=O)[C@H](CCCN=C(N)N)NC(=O)[C@@H](N)Cc1ccccc1 [FRFR]
[12]
  MIC: ≥ 100 µM

## CC(C)C[C@H](NC(=O)[C@H](C)N)C(=O)N[C@@H](Cc1ccccc1)C(=O)N[C@@H](CCCCN)C(=O)N[C@H](C(=O)N[C@@H](C)C(=O)N[C@@H](CO)C(=O)N[C@@H](CCCCN)C(=O)N[C@H](C(=O)N[C@@H](CC(C)C)C(=O)N1CCC[C@H]1C(=O)N[C@@H](CO)C(=O)N[C@H](C(=O)O)C(C)C)C(C)C)C(C)C [ALFKVASKVLPSV]
Bacillus subtilis
  MIC: ≥ 147 µM
Escherichia coli
  MIC: > 147 µM
Klebsiella pneumoniae
  MIC: > 147 µM
Micrococcus luteus
  MIC: ≥ 147 µM
Proteus mirabilis
  MIC: ≥ 147 µM
Pseudomonas aeruginosa
  MIC: > 147 µM
Salmonella typhimurium
  MIC: ≥ 147 µM
Shigella dysenteriae
  MIC: ≥ 147 µM
Staphylococcus aureus
  MIC: > 147 µM
[19]
  MIC: ≥ 147 µM

## NCCCC[C@H](NC(=O)[C@H](Cc1c[nH]c2ccccc12)NC(=O)[C@H](CCCCN)NC(=O)[C@@H](N)Cc1c[nH]c2ccccc12)C(N)=O [WKWK]
[12]
  MIC: ≥ 100 µM

## CC[C@H](C)[C@H](NC(=O)[C@H](C)NC(=O)[C@H](CCCCN)NC(=O)[C@@H](NC(=O)[C@H](CC(C)C)NC(=O)CNC(=O)[C@H](CCCCN)NC(=O)[C@@H](NC(=O)[C@@H](NC(=O)[C@H](CCCCN)NC(=O)[C@@H]1CCCN1C(=O)[C@@H](NC(=O)[C@H](CC(C)C)NC(=O)[C@H](CCCCN)NC(=O)[C@H](Cc1ccccc1)NC(=O)[C@H](CC(C)C)NC(=O)[C@@H](N)Cc1ccccc1)[C@@H](C)CC)C(C)C)[C@@H](C)CC)C(C)C)C(=O)N[C@@H](CCCN=C(N)N)C(=O)N[C@@H](CCCCN)C(N)=O [FLFKLIPKVIKGLVKAIRK]
[9]
  MIC: 1.81 µM (≈ 4 µg/mL)
[10]
  MIC: 7.23 µM (≈ 16 µg/mL)
[11]
  MIC: 1.81 µM (≈ 4 µg/mL)
